pIC50: −log10 of the molar value.
Experiments:
[1] = biological target: T1, Toll-like receptor (TLR) 4 (Mus musculus, UniProt Q9QUK6); details: reported, Ii et al. 2006; cited from earlier work
T1 sequence (Q9QUK6 26-835): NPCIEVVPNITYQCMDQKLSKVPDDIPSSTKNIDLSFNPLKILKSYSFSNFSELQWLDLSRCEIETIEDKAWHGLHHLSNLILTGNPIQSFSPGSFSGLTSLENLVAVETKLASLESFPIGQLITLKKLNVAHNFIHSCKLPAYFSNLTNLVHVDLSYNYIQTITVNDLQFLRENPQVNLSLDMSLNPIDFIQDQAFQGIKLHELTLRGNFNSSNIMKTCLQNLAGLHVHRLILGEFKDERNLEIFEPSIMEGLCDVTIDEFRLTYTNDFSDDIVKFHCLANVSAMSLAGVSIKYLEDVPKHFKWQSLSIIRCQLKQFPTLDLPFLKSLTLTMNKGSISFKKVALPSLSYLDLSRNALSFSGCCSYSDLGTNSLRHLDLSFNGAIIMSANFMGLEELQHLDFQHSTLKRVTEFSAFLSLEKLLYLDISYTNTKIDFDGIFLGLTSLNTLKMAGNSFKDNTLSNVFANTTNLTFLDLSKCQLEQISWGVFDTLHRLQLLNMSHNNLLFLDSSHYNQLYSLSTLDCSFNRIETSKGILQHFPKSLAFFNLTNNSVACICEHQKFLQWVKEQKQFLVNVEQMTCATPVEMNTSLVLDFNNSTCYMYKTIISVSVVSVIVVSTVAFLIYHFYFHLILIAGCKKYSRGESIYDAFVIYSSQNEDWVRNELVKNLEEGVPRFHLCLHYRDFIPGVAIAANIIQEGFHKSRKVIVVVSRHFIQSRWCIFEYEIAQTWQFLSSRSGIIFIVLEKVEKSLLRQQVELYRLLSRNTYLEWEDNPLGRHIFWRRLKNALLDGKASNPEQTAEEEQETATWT

[2] = biological target: T1, Toll-like receptor (TLR) 4; assay: TLR 4 inhibition assay with TAK-242 (nitrite production by macrophages); format: cell-based, murine; design: endogenous in cells; host or cells: RAW 264.7 murine macrophages; details: TAK-242 10 nM, 18 h, RAW 264.7
Excerpt: TAK-242 is a small molecule which is a specific inhibitor of Toll-like receptor (TLR) 4, which inhibits the production of pro-inflammatory mediators by binding to Cys747 in the intracellular domain of TLR4. This prevents interactions between TLR4 and its adaptor molecules Toll/IL-1 receptor domain containing adaptor protein (TIRAP) and Toll/IL-1 receptor domain-containing adaptor protein inducing interferon-β-related adaptor molecule (TRAM). Consequently, LPS-induced signal transduction is inhibited, including downstream signalling transduction that results in the production of pro-inflammatory cytokines (Matsunaga et al. 2011). […] RAW 264.7 were prepared as described in Example 3 and subsequently seeded at a density of 1×10^5 cells/well in two 96-well microtitre plates. S. cordifolia fractions (100 l) SCAF 0 and SCAF 5 (1-0.001 mg/ml) were added in triplicate to one of the plates. The positive control was 1 ng/ml LPS and the negative control was 100 μl DMEM medium. The remaining plate was arranged in an identical manner. However, the fractions SCAF 0 and SCAF 5 and positive (LPS 1 ng/ml) and negative (medium) all contained TAK-242 at a concentration 10 nM. Plates were incubated for 18 h in an incubator at 5% CO2 at 37° C. After incubation, nitrite concentrations were determined using the Griess reagent.

RAW 264.7 macrophages = assay: Nitrite concentration (Griess reaction) in macrophage culture medium; format: cell-based, murine; details: LPS 1 ng/ml, stated to be the same as extracts at 1 mg/ml
Excerpt: Induction of iNOS results in the endogenous production of nitric oxide (NO) by conversion of L-arginine to citrulline (Murad 1998). NO is a key facilitator of inflammatory responses, and is only produced by macrophages activated through the classical pathway (ligation of TLRs) (Mosser 2003). Due to the highly reactive nature of NO, its formation is commonly indirectly measured (i.e. by measuring nitrite (NO2-), one of two primary stable non-volatile breakdown products of NO).
Nitrite (NO2—) concentration in culture medium was measured using the Griess reaction method, in accordance with the protocol provided by the manufacturer (Life Technologies, Paisley). […] The concentration of NO2- was measured colourimetrically at λ550 nm using a Tecan Safire2 microplate reader.
A standard solution of 0.1M sodium nitrite (NaNO2) was used to make serial dilutions in the range of 100-1 μM to quantitate NO2- concentrations by means of a standard curve.
To determine the amount of produced NO2— produced, 50 μl of medium from each well of the 96-well microtitre plate was aspirated post incubation and transferred to a fresh 96-well microtiter plate to which a solution of 50 μl sulfanilic acid 1% (10 mg/ml) in 5% phosphoric acid was added and incubated for 10 minutes at room temperature. […] The concentration of NO2— was measured colourimetrically (λ550 nm) using a Tecan Safire2 microplate reader. […]

Compound	pIC50 [1]	activation of macrophages (nitrite production) in the presence of TAK-242 [2]	levels of NO2− (RAW 264.7 macrophages) [µmol/mL]
CCOC(=O)C1=CCCC[C@H]1S(=O)(=O)Nc1ccc(F)cc1Cl [TAK-242]	7.96 to 8.96	–	–
Lipopolysaccharide [LPS]	–	inactivated	60 to 80

— patent US20240000927A1, “IMMUNOMODULATORY AGENT” (THE QUEEN'S UNIVERSITY OF BELFAST, priority 2020, published 2024)
